In PubChem BioAssay (NCI):
Where “and” joins values, the source holds several entries; their conditions need not be identical. Identical values can stand only once.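 Grown in 96-well plates, cells were treated for 48 hours with each compound at five concentrations. Insufficient inhibition: endpoint recorded as highest concentration tested. GI50 = concentration required for 50% inhibition of growth. TGI denotes the concentration required for complete inhibition of growth.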

Assays:
Experiment in all cases: NCI tumour cell line growth inhibition, 48 h
[1] = system: HL-60(TB) leukemia
[2] = system: SN12C renal
[3] = system: HCC-2998 colon
[4] = system: CCRF-CEM leukemia
[5] = system: 786-0 renal
[6] = system: SNB-75 CNS
[7] = system: HS 578T breast
[8] = system: K-562 leukemia
[9] = system: MALME-3M melanoma
[10] = system: SR leukemia
[11] = system: CAKI-1 renal
[12] = system: IGROV1 ovarian
[13] = system: RPMI-8226 leukemia
[14] = system: UACC-62 melanoma
[15] = system: NCI-H522 lung
[16] = system: MCF7 breast
[17] = system: UACC-257 melanoma
[18] = system: HT29 colon
[19] = system: HOP-92 NSCLC
[20] = system: PC-3 prostate
[21] = system: COLO 205 colon
[22] = system: SK-MEL-5 melanoma
[23] = system: NCI-H23 lung
[24] = system: MDA-MB-435
[25] = system: T-47D breast
[26] = system: SW-620 colon
[27] = system: HCT-116 colon
[28] = system: SF-539 CNS
[29] = system: ACHN renal
[30] = system: NCI/ADR-RES ovarian
[31] = system: BT-549 breast
[32] = system: OVCAR-3 ovarian
[33] = system: RXF 393 renal
[34] = system: A549 NSCLC
[35] = system: KM12 colon
[36] = system: M14 melanoma
[37] = system: SK-MEL-2 melanoma
[38] = system: TK-10 renal
[39] = system: SF-295 CNS
[40] = system: NCI-H460 lung
[41] = system: SF-268 CNS
[42] = system: LOX IMVI melanoma
[43] = system: DU-145 prostate
[44] = system: HOP-62 NSCLC
[45] = system: NCI-H226 lung
[46] = system: OVCAR-8 ovarian
[47] = system: OVCAR-4 ovarian
[48] = system: MDA-MB-231 breast
[49] = system: OVCAR-5 ovarian
[50] = system: SK-OV-3 ovarian
[51] = system: U251 CNS
[52] = system: SK-MEL-28 melanoma
[53] = system: SNB-19 CNS
[54] = system: A498 renal
[55] = system: HCT-15 colon
[56] = system: UO-31 renal
[57] = system: MOLT-4 leukemia
[58] = system: EKVX NSCLC
[59] = system: MDA-N

SMILES: Cn1c(=O)c(Cc2ccccc2F)cc2cnc(NC3CCOCC3)nc21
- GI50 [1]: > 25000 nM
- TGI [1]: > 25 µM
- GI50 [2]: > 25 µM
- TGI [2]: > 25 µM
- GI50 [3]: > 25 µM
- TGI [3]: > 25 µM
- GI50 [4]: > 25 µM
- TGI [4]: > 25 µM
- GI50 [5]: > 25000 nM
- TGI [5]: > 25 µM
- GI50 [6]: > 8.48 µM
- TGI [6]: > 25 µM
- GI50 [7]: > 25 µM
- TGI [7]: > 25 µM
- GI50 [8]: > 25000 nM
- TGI [8]: > 25 µM
- GI50 [9]: > 25 µM
- TGI [9]: > 25 µM
- GI50 [10]: > 25000 nM
- TGI [10]: > 25 µM
- GI50 [11]: > 25 µM
- TGI [11]: > 25 µM
- GI50 [12]: > 25 µM
- TGI [12]: > 25 µM
- GI50 [13]: > 25000 nM
- TGI [13]: > 25 µM
- GI50 [14]: > 25000 nM
- TGI [14]: > 25 µM
- GI50 [15]: > 25000 nM
- TGI [15]: > 25 µM
- GI50 [16]: > 25 µM
- TGI [16]: > 25 µM
- GI50 [17]: > 25 µM
- TGI [17]: > 25 µM
- GI50 [18]: > 25 µM
- TGI [18]: > 25 µM
- GI50 [19]: 4.91 µM
- TGI [19]: > 25 µM
- GI50 [20]: > 25 µM
- TGI [20]: > 25 µM
- GI50 [21]: > 25 µM
- TGI [21]: > 25 µM
- GI50 [22]: > 25 µM
- TGI [22]: > 25 µM
- GI50 [23]: > 25000 nM
- TGI [23]: > 25 µM
- GI50 [24]: > 25 µM
- TGI [24]: > 25000 nM
- GI50 [25]: > 25 µM
- TGI [25]: > 25 µM
- GI50 [26]: > 25000 nM
- TGI [26]: > 25 µM
- GI50 [27]: > 25000 nM
- TGI [27]: > 25 µM
- GI50 [28]: > 25 µM
- TGI [28]: > 25000 nM
- GI50 [29]: > 25000 nM
- TGI [29]: > 25 µM
- GI50 [30]: > 25000 nM
- TGI [30]: > 25000 nM
- GI50 [31]: > 25 µM
- TGI [31]: > 25 µM
- GI50 [32]: > 25 µM
- TGI [32]: > 25000 nM
- GI50 [33]: > 18400 nM
- TGI [33]: > 25 µM
- GI50 [34]: > 25 µM
- TGI [34]: > 25 µM
- GI50 [35]: > 25 µM
- TGI [35]: > 25 µM
- GI50 [36]: > 25000 nM
- TGI [36]: > 25 µM
- GI50 [37]: > 25 µM
- TGI [37]: > 25 µM
- GI50 [38]: > 25 µM
- TGI [38]: > 25 µM
- GI50 [39]: > 25000 nM
- TGI [39]: > 25000 nM
- GI50 [40]: > 25000 nM
- TGI [40]: > 25 µM
- GI50 [41]: > 25 µM
- TGI [41]: > 25 µM
- GI50 [42]: > 25000 nM
- TGI [42]: > 25 µM
- GI50 [43]: > 25000 nM
- TGI [43]: > 25 µM
- GI50 [44]: > 25000 nM
- TGI [44]: > 25 µM
- GI50 [45]: > 25 µM
- TGI [45]: > 25 µM
- GI50 [46]: > 25000 nM
- TGI [46]: > 25 µM
- GI50 [47]: > 25 µM
- TGI [47]: > 25 µM
- GI50 [48]: > 25 µM
- TGI [48]: > 25 µM
- GI50 [49]: > 25 µM
- TGI [49]: > 25 µM
- GI50 [50]: > 25 µM
- TGI [50]: > 25000 nM
- GI50 [51]: > 25 µM
- TGI [51]: > 25 µM
- GI50 [52]: > 25000 nM
- TGI [52]: > 25 µM
- GI50 [53]: > 25 µM
- TGI [53]: > 25 µM
- GI50 [54]: > 25 µM
- TGI [54]: > 25 µM
- GI50 [55]: > 25000 nM
- TGI [55]: > 25 µM
- GI50 [56]: > 20400 nM
- TGI [56]: > 25 µM
- GI50 [57]: > 25000 nM
- TGI [57]: > 25 µM

SMILES: COC(=O)C1CCCN1C(=O)C(Cc1cn(S(=O)(=O)c2ccc(C)cc2)cn1)NC(=O)OC(C)(C)C (centres undefined)
- TGI [1]: > 100 µM
- TGI [2]: > 100 µM
- TGI [3]: > 100 µM
- TGI [4]: > 100 µM
- TGI [5]: > 100 µM
- TGI [6]: > 100 µM
- TGI [7]: > 100 µM
- TGI [8]: > 100 µM
- TGI [9]: > 100 µM
- TGI [10]: > 100 µM
- TGI [58]: > 100 µM
- TGI [12]: > 100 µM
- TGI [13]: > 100 µM
- TGI [14]: > 100 µM
- TGI [16]: > 100 µM
- TGI [17]: > 100 µM
- TGI [18]: > 100 µM
- TGI [19]: > 100 µM
- TGI [20]: > 100 µM
- TGI [22]: > 100 µM
- TGI [23]: > 100 µM
- TGI [26]: > 100 µM
- TGI [27]: > 100 µM
- TGI [59]: > 100000 nM
- TGI [29]: > 100 µM
- TGI [31]: > 100 µM
- TGI [33]: > 100 µM
- TGI [34]: > 100 µM
- TGI [35]: > 100 µM
- TGI [36]: > 100 µM
- TGI [37]: > 100 µM
- TGI [38]: > 100 µM
- TGI [40]: > 100 µM
- TGI [44]: > 100 µM
- TGI [45]: > 100 µM
- TGI [46]: > 100 µM
- TGI [48]: > 100 µM
- TGI [49]: > 100 µM
- TGI [51]: > 100 µM
- TGI [52]: > 100 µM
- TGI [53]: > 100 µM
- TGI [54]: > 100 µM
- TGI [55]: > 100 µM
- TGI [56]: > 100 µM
- TGI [57]: > 100 µM

SMILES: C[C@]12CC[C@@H]3c4cc(OCC(F)(F)F)c(O)cc4/C(=N/O)C[C@H]3[C@@H]1CC[C@@H]2O
- GI50 [1]: 31 nM
- TGI [1]: > 100 µM
- TGI [2]: 48.3 µM
- TGI [3]: 11.4 µM
- TGI [4]: < 0.0292 µM
- GI50 [5]: 29 nM
- GI50 [8]: 21.3 nM
- TGI [9]: 29.6 µM
- GI50 [10]: 3.19 nM and 15.7 nM
- TGI [11]: > 66.6 µM
- TGI [58]: 28.9 µM
- TGI [12]: 20 µM
- GI50 [13]: 58.4 nM
- TGI [13]: 2.33 µM
- GI50 [14]: 24.3 nM
- TGI [14]: 17.7 µM
- GI50 [15]: 50.7 nM
- TGI [15]: 25.6 µM
- TGI [16]: 33.9 µM
- TGI [17]: 45.5 µM
- TGI [18]: 13.2 µM
- TGI [19]: 26.3 µM
- TGI [20]: 12 µM
- TGI [21]: 35.3 µM
- TGI [22]: 12.5 µM
- GI50 [23]: 78.7 nM
- TGI [23]: 12.7 µM
- TGI [24]: 46.5 nM
- GI50 [26]: 40.3 nM
- TGI [26]: > 48.1 µM
- GI50 [27]: 42.1 nM
- TGI [27]: 15.2 µM
- TGI [28]: 72.5 nM
- TGI [59]: 1060 nM
- GI50 [29]: 65 nM
- TGI [29]: > 64 µM
- GI50 [30]: 39.2 nM
- TGI [30]: 2490 nM
- TGI [32]: 26.9 nM
- GI50 [33]: 32.2 nM
- TGI [33]: 0.135 µM
- TGI [34]: 35.6 µM
- TGI [35]: 11.2 µM
- GI50 [36]: 51.3 nM
- TGI [36]: 16.9 µM
- TGI [37]: 0.852 µM
- TGI [38]: > 100 µM
- GI50 [39]: 61.1 nM
- TGI [39]: 1950 nM
- GI50 [40]: 36.2 nM
- TGI [40]: 3.79 µM
- TGI [41]: 21.7 µM
- GI50 [42]: 48 nM
- TGI [42]: 14.8 µM
- GI50 [43]: 67.3 nM
- TGI [43]: > 54 µM
- GI50 [44]: 29 nM
- TGI [44]: 0.419 µM
- TGI [45]: > 40.8 µM
- GI50 [46]: 80.8 nM
- TGI [46]: 15.5 µM
- TGI [47]: 39 µM
- TGI [48]: 1.5 µM
- TGI [49]: > 58.2 µM
- TGI [50]: 439 nM
- TGI [51]: 1.07 µM
- GI50 [52]: 63.7 nM
- TGI [52]: 25.9 µM
- TGI [53]: > 63.1 µM
- TGI [54]: 21.5 µM
- GI50 [55]: 48.7 nM
- TGI [55]: > 42.5 µM
- GI50 [56]: 149 nM
- TGI [56]: 20.8 µM
- GI50 [57]: 57.5 nM
